Experiments:
[1] = DePaoli et al., Diabetes Care 2014; cited from earlier work
[2] = tested on: HbA1c; experiment: 24-week study in subjects with type 2 diabetes: HbA1c levels; type: in vivo, human; details: 2 and 3 mg doses of INT131, daily for 24 weeks
[3] = tested on: mesenchymal stem cells (MSCs); experiment: differentiation of mesenchymal stem cells into osteoblasts / adipocytes; type: cell-based; details: no method described
[4] = tested on: HbA1c; details: DePaoli et al., Diabetes Care 2014; cited from earlier work
[5] = tested on: adiponectin; experiment: Example 3 (INT131 activates bone remodeling): 14-day study in healthy subjects; type: in vivo, human; details: 0.1 mg INT131 daily for 14 days
Experimental: (§1) A study was conducted to determine the effect of INT131 on serum adiponectin levels. Thirty healthy subjects were randomly selected to receive either placebo, 0.1 mg INT131, 1 mg INT131 or 4 mg INT131 daily for 14 days. To measure adiponectin levels blood was drawn at Days 1, 4, 8 and 14.

[6] = tested on: diet-induced obese mice; details: 10 mg/kg of INT131, Lee et al. 2012; cited from earlier work
[7] = tested on: adiponectin; experiment: 14-day study in healthy subjects: serum adiponectin levels; type: in vivo, human
Experimental: as §1

[8] = tested on: adiponectin; experiment: randomized, double-blind, placebo-controlled, 24-week study in subjects with type 2 diabetes: adiponectin levels; type: in vivo, human; details: for Mean Change in adiponectin from baseline (Week 0) to Week 24: LOCF, type 2 diabetes subjects
Experimental: A randomized, double-blind, placebo-controlled, 24-week study was conducted in which adiponectin levels were measured. […] 367 subjects with type 2 diabetes (TD2)—a disease in which patient adiponectin levels are reduced—were randomly assigned to receive either 0.5, 1, 2 or 3 milligrams (“mg”) of INT131 besylate, 45 mg of pioglitazone or placebo daily for 24 weeks. To measure adiponectin levels blood was drawn at Weeks 0, 2, 6, 12 and 24.
At baseline (Week 0) mean adiponectin levels were 1.94 micrograms per milliliter (“μg/mL”). The mean adiponectin levels at baseline and Week 24, and the mean change in adiponectin levels from baseline (Week 0) to Week 24 are disclosed in Table 1, below. The standard deviation for samples tested in each group is listed in (parenthesis). Mean baseline adiponectin values were similar for the treatment groups.

[9] = 0.1 mg INT131 daily for 14 days

Structure (SMILES) | edema, weight gain and hemodilution compared with subjects taking pioglitazone [1] | reduction of HbA1c levels compared with 45 mg of pioglitazone [2] | differentiation of mesenchymal stem cells (MSCs) into osteoblasts [3] | increase of adipocytes [3] | efficacy in reducing HbA1c levels compared with 45 mg of pioglitazone [4] | change from Day 1 to Day 14 (sentence breaks off) [5] | effect on bone mass [6] | change in adiponectin levels over placebo [7, 9] | change in serum adiponectin levels from Day 1 to Day 14 [7, 9] | change in serum adiponectin levels over placebo ([7]; 1 mg or 4 mg INT131 daily for 14 days) | Mean Change in adiponectin from baseline (Week 0) to Week 24 ([8]; 0.5 mg INT131 besylate daily) [µg/mL] | Mean Change in adiponectin from baseline (Week 0) to Week 24 ([8]; 1 mg INT131 besylate daily) [µg/mL] | treatment comparison with placebo, adiponectin levels ([8]; 1 mg, 2 mg and 3 mg doses of INT131, p≤0.0109) | Mean Change in adiponectin from baseline (Week 0) to Week 24 ([8]; 2 mg INT131 besylate daily) [µg/mL] | Mean Change in adiponectin from baseline (Week 0) to Week 24 ([8]; 3 mg INT131 besylate daily) [µg/mL] | Mean Change in adiponectin from baseline (Week 0) to Week 24 ([8]; 45 mg pioglitazone daily) [µg/mL]
O=S(=O)(Nc1cc(Cl)c(Oc2cnc3ccccc3c2)c(Cl)c1)c1ccc(Cl)cc1Cl [INT131] | less | at least as well | promotes | does not result in an increase | equally efficacious | no significant | does not affect bone mass | no significant change | no significant change | significant change | 0.56 | 1.28 | statistically significant | 3.27 | 3.83 | –
CCc1ccc(CCOc2ccc(CC3SC(=O)NC3=O)cc2)nc1 (stereo not shown) [pioglitazone, reference compound] | – | – | – | – | – | – | – | – | – | – | – | – | – | – | – | 2.96

From patent publication US20190167660A1, “PPAR-gamma AGONIST FOR TREATMENT OF BONE DISORDERS” (InteKrin Therapeutics, Inc., priority 2016, published 2019)
